Consider one molecule from patent US20220023381A1, “VDAC INHIBITORS FOR TREATING AUTOIMMUNE DISEASES” (NATIONAL INSTITUTE FOR BIOTECHNOLOGY IN THE NEGEV LTD., priority 2018, published 2022).

The data set deals with MRL/lpr mice. The data set can be described thus: MRL/lpr lupus-prone mouse model. The format is in vivo. As for the experimental part: All experiments were approved by the ACUC (Animal Care and Use Committee) of the NIH/NHLBI. Lupus-prone female MRL/MpJ-Fas^lpr/J mice (stock #000485, n=10 in each group), used as a model to determine the etiology of systemic lupus erythematosus (SLE), were purchased from The Jackson Laboratory. VIBIT4 was freshly dissolved in DMSO and diluted in water (final pH 5.0). The mice were treated with a daily dose of VBIT-4 (20 mg/kg) or vehicle in drinking water for 5 weeks, beginning at 11 weeks of age until euthanasia at 16 weeks of age. Blood and urine samples were collected when the mice were 16 weeks of age. The body weight of the mice was measured before and after VBIT-4 administration (at 11 and 16 weeks of age).
Proteinuria in fresh urine was measured using creatinine and albumin ELISA kits (Exocell), and mouse albumin was used to determine the proteinuria:creatinine ratio following the manufacturer's instructions.
Circulating mtDNA was isolated from 500 μl of serum using QIAamp Circulating Nucleic Acid Kit (Qiagen) according to the manufacturer's protocol. Briefly, serum samples were incubated with proteinase K and carrier RNA at 55° C. for 30 min in lysis buffer, and the circulating nucleic acids were bound to the silica membrane by applying vacuum pressure. After washing, the eluted samples were used for real-time RT-PCR. Primers of the mtDNA D-loop3 regions were used to quantify serum mtDNA. Anti-dsDNA antibodies were detected at 1:200 serum dilution using an ELISA kit (Alpha Diagnostic).
Kidneys were harvested after perfusion with PBS from MRL/lpr mice. Frozen kidney sections were fixed in cold acetone for 20 min, washed, and blocked for 18 h at 4° C. with 4% BSA in PBS. To detect glomerular deposits, the sections were stained with FITC-conjugated anti-mouse C3 antibody (GC3-90E-Z, Immunology Consultants Laboratory) and Alexa Fluor 594-conjugated anti-Mouse IgG antibody (A-11020, Invitrogen) with Hoechst staining at 1:100 dilution (Life Technologies) for 1 h at room temperature. After washing with PBS, the tissues were mounted, and the slides were observed using a LSM880 laser confocal microscope. The fluorescence intensity score was determined after analyzing random images for each animal in a blinded manner.

The mark [1] stands for this setting: VBIT-4 20 mg/kg daily in drinking water, 5 weeks.

Consider `O=C(CC(CO)N1CCN(c2ccc(OC(F)(F)F)cc2)CC1)Nc1ccc(Cl)cc1` (centres unmarked) [VBIT-4, N-(4-chlorophenyl)-4-hydroxy-3-(4-(4-(trifluoromethoxy)phenyl)-piperazin-1-yl)butanamide], for which, under “20 mg/kg daily, 5 weeks, at 16 weeks of age”, the “weight of spleen and lymph node” value is “reduced”. The “renal immune complex deposition” value (C3 and IgG in kidney glomeruli, compared with vehicle-treated mice) is listed as “significantly diminished”. Further, under setting [1], the “alopecia of face and dorsal” value is listed as “suppressed”; the “development of skin lesions” value is reported as “blocked”; the mortality result is listed as “did not cause any mortality”; the “thickening of the epidermis that accompanies leukocyte infiltration” value is given as “blocked”. In addition, the “change in body weight” value (VBIT-4 20 mg/kg daily in drinking water, 5 weeks, 11 and 16 weeks of age) is “did not cause any mortality or change in body weight”. For the same molecule, the proteinuria entry (albumin:creatinine ratio, compared with vehicle-treated mice) is on record as “significantly diminished”. Also, the “serum anti-dsDNA” value (compared with vehicle-treated mice) is recorded as “significantly diminished”. For the same molecule, the “cell-free mtDNA” value (serum, compared with vehicle-treated mice) is on record as “significantly diminished”. The ISG induction result (spleen, real-time PCR, compared with vehicle-treated mice) was “significantly diminished”.
